Key:
Assay in all cases: Herbicidal effect test by soil treatment
Type in all cases: in vivo
[1] = tested on: annual sedge (Cyperus microiria); conditions: three weeks after spraying
Summary of the method: (§1)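 Soil-applied pre-emergence test: crop and weed seeds sown together, sprayed with diluted formulations at predetermined active-ingredient doses, and evaluated after 3 weeks by fresh-weight growth control rate.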

[2] = tested on: barnyardgrass (Echinochloa crusgalli); conditions: three weeks after spraying
Summary of the method: as §1

[3] = tested on: black nightshade (Solanum nigrum L.); conditions: three weeks after spraying
Summary of the method: as §1

corn (Zea mays) = conditions: crop plant, three weeks after spraying
Summary of the method: as §1

[4] = tested on: cotton (Gossypium herbaceum); conditions: crop plant, three weeks after spraying
Summary of the method: as §1

[5] = tested on: hairly galinosoga (Galinsoga ciliat); conditions: three weeks after spraying
Summary of the method: as §1

[6] = tested on: large crabgrass (Digitaria adscendens); conditions: three weeks after spraying
Summary of the method: as §1

rice (Oryza sativa) = conditions: crop plant, three weeks after spraying
Summary of the method: as §1

[7] = tested on: rorippa ssp. (Rorippa atrovirens); conditions: three weeks after spraying
Summary of the method: as §1

soybean (Glysine max) = conditions: crop plant, three weeks after spraying
Summary of the method: as §1

[8] = tested on: wheat (Triticum aestivum); conditions: crop plant, three weeks after spraying
Summary of the method: as §1

## C#CCN1C(=O)COc2cc(F)c(N3C(=O)CC(C)CC3=O)cc21 [1-23]
[1]; application amount 0.4 g/a
  herbicidal effect, K (Cyperus microiria): 5 (Growth control,rates of more than 90% (almost completely withered))
[1]; application amount 0.8 g/a
  herbicidal effect, K (Cyperus microiria): 5 (Growth control,rates of more than 90% (almost completely withered))
[1]; application amount 1.6 g/a
  herbicidal effect, K (Cyperus microiria): 5 (Growth control,rates of more than 90% (almost completely withered))
[2]; application amount 0.4 g/a
  herbicidal effect, N (Echinochloa crusgalli): 5 (Growth control,rates of more than 90% (almost completely withered))
[2]; application amount 0.8 g/a
  herbicidal effect, N (Echinochloa crusgalli): 5 (Growth control,rates of more than 90% (almost completely withered))
[2]; application amount 1.6 g/a
  herbicidal effect, N (Echinochloa crusgalli): 5 (Growth control,rates of more than 90% (almost completely withered))
[3]; application amount 0.4 g/a
  herbicidal effect, H (Solanum nigrum L.): 5 (Growth control,rates of more than 90% (almost completely withered))
[3]; application amount 0.8 g/a
  herbicidal effect, H (Solanum nigrum L.): 5 (Growth control,rates of more than 90% (almost completely withered))
[3]; application amount 1.6 g/a
  herbicidal effect, H (Solanum nigrum L.): 5 (Growth control,rates of more than 90% (almost completely withered))
Corn (Zea mays); application amount 0.4 g/a
  herbicidal effect, T (Zea mays): 4 (Growth control rates of 70 to 90%)
Corn (Zea mays); application amount 0.8 g/a
  herbicidal effect, T (Zea mays): 5 (Growth control,rates of more than 90% (almost completely withered))
Corn (Zea mays); application amount 1.6 g/a
  herbicidal effect, T (Zea mays): 5 (Growth control,rates of more than 90% (almost completely withered))
[4]; application amount 0.4 g/a
  herbicidal effect, C (Gossypium herbaceum): 2 (Growth control rates of 20 to 40%)
[4]; application amount 0.8 g/a
  herbicidal effect, C (Gossypium herbaceum): 3 (Growth control rates of 40 to 70%)
[4]; application amount 1.6 g/a
  herbicidal effect, C (Gossypium herbaceum): 4 (Growth control rates of 70 to 90%)
[5]; application amount 0.4 g/a
  herbicidal effect, D (Galinsoga ciliat): 5 (Growth control,rates of more than 90% (almost completely withered))
[5]; application amount 0.8 g/a
  herbicidal effect, D (Galinsoga ciliat): 5 (Growth control,rates of more than 90% (almost completely withered))
[5]; application amount 1.6 g/a
  herbicidal effect, D (Galinsoga ciliat): 5 (Growth control,rates of more than 90% (almost completely withered))
[6]; application amount 0.4 g/a
  herbicidal effect, M (Digitaria adscendens): 5 (Growth control,rates of more than 90% (almost completely withered))
[6]; application amount 0.8 g/a
  herbicidal effect, M (Digitaria adscendens): 5 (Growth control,rates of more than 90% (almost completely withered))
[6]; application amount 1.6 g/a
  herbicidal effect, M (Digitaria adscendens): 5 (Growth control,rates of more than 90% (almost completely withered))
Rice (Oryza sativa); application amount 0.4 g/a
  herbicidal effect, R (Oryza sativa): 2 (Growth control rates of 20 to 40%)
Rice (Oryza sativa); application amount 0.8 g/a
  herbicidal effect, R (Oryza sativa): 3 (Growth control rates of 40 to 70%)
Rice (Oryza sativa); application amount 1.6 g/a
  herbicidal effect, R (Oryza sativa): 5 (Growth control,rates of more than 90% (almost completely withered))
[7]; application amount 0.4 g/a
  herbicidal effect, I (Rorippa indica): 5 (Growth control,rates of more than 90% (almost completely withered))
[7]; application amount 0.8 g/a
  herbicidal effect, I (Rorippa indica): 5 (Growth control,rates of more than 90% (almost completely withered))
[7]; application amount 1.6 g/a
  herbicidal effect, I (Rorippa indica): 5 (Growth control,rates of more than 90% (almost completely withered))
Soybean (Glysine max); application amount 0.4 g/a
  herbicidal effect, S (Glysine max): 0 (Growth control rates of less than 5% (substantially no effect))
Soybean (Glysine max); application amount 0.8 g/a
  herbicidal effect, S (Glysine max): 1 (Growth control rates of 5 to 20%)
Soybean (Glysine max); application amount 1.6 g/a
  herbicidal effect, S (Glysine max): 2 (Growth control rates of 20 to 40%)
[8]; application amount 0.4 g/a
  herbicidal effect, W (Triticum vulgare): 4 (Growth control rates of 70 to 90%)
[8]; application amount 0.8 g/a
  herbicidal effect, W (Triticum vulgare): 5 (Growth control,rates of more than 90% (almost completely withered))
[8]; application amount 1.6 g/a
  herbicidal effect, W (Triticum vulgare): 5 (Growth control,rates of more than 90% (almost completely withered))

## CCOC(=O)Nc1cc(N2C(=O)CC(C(F)(F)F)CC2=O)c(F)cc1Cl [1-35]
[1]; application amount 1.6 g/a
  herbicidal effect, K (Cyperus microiria): 5 (Growth control,rates of more than 90% (almost completely withered))
[2]; application amount 1.6 g/a
  herbicidal effect, N (Echinochloa crusgalli): 4 (Growth control rates of 70 to 90%)
[3]; application amount 1.6 g/a
  herbicidal effect, H (Solanum nigrum L.): 5 (Growth control,rates of more than 90% (almost completely withered))
Corn (Zea mays); application amount 1.6 g/a
  herbicidal effect, T (Zea mays): 0 (Growth control rates of less than 5% (substantially no effect))
[4]; application amount 1.6 g/a
  herbicidal effect, C (Gossypium herbaceum): 0 (Growth control rates of less than 5% (substantially no effect))
[5]; application amount 1.6 g/a
  herbicidal effect, D (Galinsoga ciliat): 5 (Growth control,rates of more than 90% (almost completely withered))
[6]; application amount 1.6 g/a
  herbicidal effect, M (Digitaria adscendens): 5 (Growth control,rates of more than 90% (almost completely withered))
Rice (Oryza sativa); application amount 1.6 g/a
  herbicidal effect, R (Oryza sativa): 0 (Growth control rates of less than 5% (substantially no effect))
[7]; application amount 1.6 g/a
  herbicidal effect, I (Rorippa indica): 5 (Growth control,rates of more than 90% (almost completely withered))
Soybean (Glysine max); application amount 1.6 g/a
  herbicidal effect, S (Glysine max): 0 (Growth control rates of less than 5% (substantially no effect))
[8]; application amount 1.6 g/a
  herbicidal effect, W (Triticum vulgare): 1 (Growth control rates of 5 to 20%)
